Measurements reported in article PMC6792352, “Limited Chemical Structural Diversity Found to Modulate Thyroid Hormone Receptor in the Tox21 Chemical Library” (Environmental Health Perspectives, 2019).

Test: in vitro
Conditions: rat, gh3-tre-luc cells

| SMILES | CC50 at 24 h (AC50 (uM) modified / 1000) [µM] | other results |
| --- | --- | --- |
| Clc1cc(Cl)c(-c2cc(Cl)c(Cl)cc2Cl)cc1Cl [2,2',4,4',5,5'-Hexachlorobiphenyl] | – | CC50 at 24 h (AC50 (uM) modified / 1000, Tox21_110001=Tox21_202470, viability, 1 nM T3 present, 24 h): > 40 µM |
| Brc1ccc(Oc2cc(Br)c(Br)cc2Br)c(Br)c1 [2,2',4,4',5-Pentabromodiphenyl ether] | – | CC50 at 24 h (AC50 (uM) modified / 1000, Tox21_110001=Tox21_200156, viability, 1 nM T3 present, 24 h): > 90 µM |
| O=C(c1ccc(O)cc1O)c1ccc(O)cc1O [2,2',4,4'-Tetrahydroxybenzophenone] | > 90 | – |
| Nc1cc(Cl)c(-c2cc(Cl)c(N)cc2Cl)cc1Cl [2,2',5,5'-Tetrachlorobenzidine] | 13.7 | – |
| OCCN(CCO)c1cccc(Cl)c1 [2,2'-(3-Chlorophenylimino)diethanol] | > 90 | – |
| OCCSCSCCO [2,2'-(Methanediyldisulfanediyl)diethanol] | – | CC50 at 24 h (AC50 (uM) modified / 1000, Tox21_110001=Tox21_301758, viability, 1 nM T3 present, 24 h): > 90 µM |
| CCC(CO)(CO)COCC(CC)(CO)CO [2,2'-(Oxydimethanediyl)bis(2-ethylpropane-1,3-diol)] | > 90 | – |
| CCCCCCCCCCCCCCN(CCO)CCO [2,2'-(Tetradecylimino)diethanol] | 23.3 | – |
| CC(C)(C)N(CCO)CCO [2,2'-(tert-Butylimino)diethanol] | > 90 | – |
| CCC(C)(C#N)N=NC(C)(C#N)CC (stereo not shown) [2,2'-Azobis(2-methylbutanenitrile)] | – | CC50 at 24 h (AC50 (uM) modified / 1000, Tox21_110001=Tox21_301414, viability, 1 nM T3 present, 24 h): > 90 µM |
| c1ccc(-c2ccccn2)nc1 [2,2'-Bipyridine] | > 90 | – |
| Oc1ccccc1Cc1ccccc1O [2,2'-Bisphenol F] | > 90 | – |
| Clc1ccccc1-c1ccccc1Cl [2,2'-Dichlorobiphenyl] | – | CC50 at 24 h (AC50 (uM) modified / 1000, Tox21_110001=Tox21_202244, viability, 1 nM T3 present, 24 h): > 100 µM |
| COc1ccc(C(=O)c2ccc(OC)cc2O)c(O)c1 [2,2'-Dihydroxy-4,4'-dimethoxybenzophenone] | > 90 | – |
| O=C(c1ccccc1O)c1ccccc1O [2,2'-Dihydroxybenzophenone] | > 90 | – |
| c1ccc2sc(SSc3nc4ccccc4s3)nc2c1 [2,2'-Dithiobisbenzothiazole] | > 50 | – |
| CCc1cc(Cc2cc(CC)cc(C(C)(C)C)c2O)c(O)c(C(C)(C)C)c1 [2,2'-Methylenebis(ethyl-6-tert-butylphenol)] | 7.35 | – |

| SMILES | CC50 at 24 h (AC50 (uM) modified / 1000) [µM] | other results |
| --- | --- | --- |
| NCCOCCN [2,2'-Oxybis(ethylamine)] | > 90 | – |
| SCCSCCS [2,2'-Sulfanediyldiethanethiol] | > 90 | – |
| OCCOc1ccc(OCCO)cc1 [2,2'-[1,4-Phenylenebis(oxy)]diethanol] | > 90 | – |
| NCCCN(CCO)CCO [2,2'-[(3-Aminopropyl)imino]diethanol] | > 90 | – |
| Cc1ccc(N(CCO)CCO)cc1 [2,2'-[(4-Methylphenyl)imino]diethanol] | > 90 | – |
| OCCOc1cccc(OCCO)c1 [2,2'-[Benzene-1,3-diylbis(oxy)]diethanol] | > 90 | – |
| C1CC(COCC2CO2)CCC1COCC1CO1 (stereo not shown) [2,2'-[Cyclohexane-1,4-diylbis(methanediyloxymethanediyl)]dioxirane] | 59.2 | – |
| NCCOCCOCCN [2,2'-[Ethane-1,2-diylbis(oxy)]diethanamine] | > 90 | – |
| SCCOCCOCCS [2,2'-[Ethane-1,2-diylbis(oxy)]diethanethiol] | > 90 | – |
| CC(=O)OC(c1ccccc1)C(Cl)(Cl)Cl (stereo not shown) [2,2,2-Trichloro-1-phenylethyl acetate] | > 90 | – |
| NC(=O)C(Cl)(Cl)Cl [2,2,2-Trichloroacetamide] | > 90 | – |
| OCC(F)(F)F [2,2,2-Trifluoroethanol] | > 100 | – |
| C[Si]1(C)N[Si](C)(C)N[Si](C)(C)N1 [2,2,4,4,6,6-Hexamethyl-1,3,5,2,4,6-triazatrisilinane] | > 90 | – |
| CC1(C)C(O)C(C)(C)C1O (stereo not shown) [2,2,4,4-Tetramethylcyclobutane-1,3-diol] | > 90 | – |
| CC1(C)C(=O)C(C)(C)C1=O [2,2,4,4-Tetramethylcyclobutane-1,3-dione] | > 90 | – |
| CC(C)C(=O)OCC(C)(C)C(OC(=O)C(C)C)C(C)C (stereo not shown) [2,2,4-Trimethyl-1,3-pentanediol diisobutyrate] | > 90 | – |
| CC(C)C(O)C(C)(C)CO (stereo not shown) [2,2,4-Trimethyl-1,3-pentanediol] | > 90 | – |
